Assays:
SKBR3 cells = test: Polysome profiling and western blot of 60S fractions; format: cell-based, human; conditions: TSA 1 μM, 2 h
Protocol: Since RPL24 depletion decreased the levels of three cap-dependently translated proteins, the impact of RPL24 knockdown on overall ribosome and polysome formation in these cells was evaluated. Polysome profiling, which utilizes continuous sucrose gradient fractionation to separate free 40S and 60S ribosomal subunits, 80S ribosomes, and polysomes (two or more ribosomes on one mRNA) was used. […] This observed increase in 40S and 60S subunits relative to 80S ribosomes implies a defect in 40S-60S joining induced by the RPL24 knockdown. Since eIF6 bound to the pre-60S subunit prevents joining of the 40S and 60S subunits and occurs adjacent to RPL24 on 60S (FIG. 3c), immunoblotting on all 60S-containing polysome fractions to evaluate the impact of RPL24 knockdown on eIF6 retention was performed. […] Associated with the observed 60S loss of RPL24 was a striking increase in 60S-associated eIF6 (FIG. 3d). To rule out the possibility that the observed 60S retention of eIF6 might be a false-positive or non-specific artifact of lentiviral expressed RPL24 shRNA, a functionally deficient truncation mutant of RPL24 that eliminates the last 17 amino acids was overexpressed. Polysome profiling of 293T cells expressing intact versus truncated RPL24 protein confirmed that truncated RPL24 can induce 60S retention of eIF6 (FIG. 8).
Polysome profiles to separate the 40S, 60S, 80S and polysomes are carried out by layering cell lysates over a continuous 10-50% sucrose gradient and spun at 38,000 rpm for 2 h as previously described. Fractions are collected using a Retriever 500 fraction collector with a UV (UA6) detector (ISCO Teledyne (Lincoln, Nebr.)).
FIG. 3: RPL24 knockdown reduces 80S and polysome assembly while increasing 60S retention of eIF6. […] (a) Western blots using the indicated antibodies were performed on total cell lysates to assess knockdown efficiency. (b) Lysates were applied to a continuous sucrose gradient (10-50%) and ultracentrifugation followed by fractionation was performed to separate ribosomal subunits and polysomes. […]

[1] = tested on: cyclin D1, survivin, and NBS1; test: Western blot of cap (eIF4E)-dependently translated proteins; format: cell-based, human; conditions: SKBR3 cells
Protocol: Since the translation-dependent checkpoint mechanism remains undefined, the impact of RPL24 depletion in a model human breast cancer cell line, SKBR3, sensitive to eIF4E-regulated and cap-dependent translation inhibition was evaluated. Two different RPL24-directed shRNA-expressing lentiviruses were used to decrease RPL24 protein expression by approximately 70% (FIG. 2a). […] Associated with RPL24 depletion and growth inhibition was a marked reduction in the expression of three different eIF4E-regulated and cap-dependent transcripts necessary for cell proliferation (75% reduction in cyclin D1), survival (46% reduction in survivin), and DNA repair and integrity (30% reduction in NBS1). Protein levels of two housekeeping genes not regulated by eIF4E, GAPDH and β-tubulin, were not affected by RPL24 depletion (FIG. 2a).
Cells are lysed in RIPA buffer (10 mM Tris-HCL (pH 8.0), 1 mM EDTA, 0.5 mM EGTA, 1% triton X-100, 0.1% sodium deoxycholate, 0.1% SDS, 140 mM NaCl, 20 mM NaF, Complete EDTA-free protease inhibitor tablets (Roche Diagnostics Corp., Basel, Switzerland) and the phosphatase inhibitor cocktail PhosSTOP (Roche)), the latter two as indicated by the manufacturer's protocol. Equal amounts of protein are diluted in 2× sample buffer. Immunoblots on PVDF (Polyvinyldene Fluoride) membranes are blocked with nonfat milk in tris-buffered saline with 0.05% tween-20 (TBST). The following antibodies are incubated with membranes in 5% nonfat milk in TBST: RPL24 (Proteintech, Chicago, Ill.), Cyclin D1, Rack1, RPL4 (Santa Cruz Biotechnology, Santa Cruz, Calif.), NBS1, GAPDH (EMD Millipore Corporation, Chicago, Ill.), Survivin, β-tubulin, acetyl-lysine, eIF6, acetyl-H2B, H2B, (Cell Signaling Technology, Boston, Mass.), acetyl-tubulin, tubulin (Sigma Aldrich (St. Louis, Mo.))
FIG. 2: RPL24 knockdown reduces breast cancer cell viability while inhibiting cap (eIF4E)-dependent expression of proliferation, survival and genome stability proteins. SKBR3 cells were infected with lentiviruses expressing a GFP control or RPL24-targeting shRNA. After one week of puromycin selection, cells were plated in 96-well plates for viability assays and lysates were taken in parallel for western blots. (a) Western blots were performed on lysates from an equal number of cells using antibodies toward the indicated proteins. (b) Viability assay readings were taken three hours after plating (day 0) and four days after plating (day 4). The day 4 results were normalized for plating efficiency using the day 0 values. Error bars represent three replicate samples.
FIG. 5: Like RPL24 knockdown, histone deacetylase inhibition reduces 80S assembly while increasing 60S retention of eIF6 and reduces expression of cap (eIF4)-dependently translated proteins (a,b) SKBR3 cells were treated with TSA (1 μM, 2 h). […]

CC(/C=C/C(=O)NO)=C\[C@@H](C)C(=O)c1ccc(N(C)C)cc1 [TSA, trichostatin-A]
60S RPL24 levels (SKBR3 cells): without reducing | 60S retention of eIF6 (SKBR3 cells): increasing | 80S and polysome assembly (SKBR3 cells): reduced | cyclin D1 levels ([1]; 8 h treatment): reduced | expression of NBS1 relative to GAPDH and β-tubulin ([1]; 24 h treatment): reduced | expression of cyclin D1 relative to GAPDH and β-tubulin ([1]; 24 h treatment): reduced | expression of survivin relative to GAPDH and β-tubulin ([1]; 24 h treatment): reduced

— patent US20150359794A1, “IMPAIRMENT OF THE LARGE RIBOSOMAL SUBUNIT PROTEIN RPL24 BY DEPLETION OR ACETYLATION” (Buck Institute for Research on Aging, priority 2014, published 2015)
